{
  "source": "paper PMC7682800",
  "about": "(Arteriosclerosis, Thrombosis, and Vascular Biology, 2020)",
  "origin": "cited, not measured here",
  "system": "PAR1",
  "conditions": "oral administration",
  "data": [
    {"smiles": "CCOC(=O)N[C@@H]1CC[C@@H]2[C@@H](C1)C[C@H]1C(=O)O[C@H](C)[C@H]1[C@H]2/C=C/c1ccc(-c2cccc(F)c2)cn1", "note": "[vorapaxar]", "values": [
      {"measurement": "Pharmacodynamic half-life", "result": "≥ 4", "unit": "weeks"}
    ]}
  ]
}
